Publication PMC10825133, “Repurposing proteasome inhibitors for improved treatment of triple-negative breast cancer” (Cell Death Discovery, 2024)
Read-outs that look alike come from different tables or passages of the source.

Columns and labels:
CAL-148 cells = assay: Resazurin-based cell viability assay, monotherapy drug screen; design: species or system human; AUC: unit not given beside the values; conditions: CAL-148; for AUC: area under the dose response curve, 24 h; for GRmax: drug efficacy at highest tested dose (<0 cytotoxic, 0 cytostatic, >0 partial growth inhibition)
[1] = tested on: eight TNBC cell lines (BT-549, CAL-148, HCC1806, HCC38, HCC70, MDA-MB-436, MDA-MB-453, MDA-MB-468); assay: Monotherapy drug screen, mean across the TNBC cell lines; conditions: 24 h; for area under the dose response curve (AUC), mean ± SD: TNBC cell lines; for IC50: Homo sapiens, read-out: GR50 (mean ± SD)
Method in brief: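 Cells seeded at 4.0 × 10^3–7.5 × 10^3/well, grown 24 h, then drug-treated 24 h with matched solvent-vehicle controls per concentration; resazurin absorbance read-out, viability normalised to vehicle after background subtraction, t = 0 untreated cells for GR. AUC, IC50, GR50, GRmax via GRmetrics; combinations predicted by IDACombo, synergy scored with SynergyFinder.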

HCC1806 cells = assay: Resazurin-based cell viability assay, monotherapy drug screen; design: species or system human; AUC: scale not given here; conditions: HCC1806; for AUC: area under the dose response curve, 24 h; for GRmax: drug efficacy at highest tested dose (<0 cytotoxic, 0 cytostatic, >0 partial growth inhibition)
Method in brief: (§1)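 Cells were seeded at the highest density (tested 1000-16000 cells/well) giving linear growth between days 1 and 3, keeping them in exponential phase over the ~52 h experiment. Viability was read after 4 h at 37 °C with 0.2 mg/ml resazurin added at 10% of medium volume; ex 560/em 615 nm.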

BT-549 cells = assay: as above; design: species or system human; AUC: scale not given here; conditions: BT-549; for AUC: area under the dose response curve, 24 h; for GRmax: drug efficacy at highest tested dose (<0 cytotoxic, 0 cytostatic, >0 partial growth inhibition)
Method in brief: as §1

MDA-MB-468 cells = assay: as above; design: species or system human; AUC: scale not given here; conditions: MDA-MB-468; for AUC: area under the dose response curve, 24 h
Method in brief: as §1

MDA-MB-436 cells = assay: as above; design: species or system human; AUC: scale not given here; conditions: MDA-MB-436; for AUC: area under the dose response curve, 24 h; for GRmax: drug efficacy at highest tested dose (<0 cytotoxic, 0 cytostatic, >0 partial growth inhibition)
Method in brief: as §1

MCF-7 cells = assay: as above; design: species or system human; AUC: scale not given here; conditions: MCF-7; for AUC: area under the dose response curve, 24 h; for GRmax: drug efficacy at highest tested dose (<0 cytotoxic, 0 cytostatic, >0 partial growth inhibition)
Method in brief: as §1

HCC70 cells = assay: as above; design: species or system human; AUC: scale not given here; conditions: HCC70; for AUC: area under the dose response curve, 24 h; for GRmax: drug efficacy at highest tested dose (<0 cytotoxic, 0 cytostatic, >0 partial growth inhibition)
Method in brief: as §1

MCF-10A cells = assay: as above; design: species or system human; AUC: scale not given here; conditions: for AUC: area under the dose response curve, 24 h
Method in brief: as §1

[2] = 24 h drug treatment, read-out: IC50
[3] = growth rate inhibition concentration at GR(c) = 0.5, 24 h, read-out: GR50 (the source's name)
[4] = drug efficacy at highest tested dose (<0 cytotoxic, 0 cytostatic, >0 partial growth inhibition)
[5] = Homo sapiens, growth rate inhibition concentration at GR(c) = 0.5, 24 h, read-out: GR50 (the source's name)
[6] = Homo sapiens, 24 h drug treatment, read-out: IC50
[7] = Homo sapiens, MCF7, growth rate inhibition concentration at GR(c) = 0.5, 24 h, read-out: GR50 (the source's name)

Row | SMILES | AUC (CAL-148 cells) | GRmax (CAL-148 cells) | area under the dose response curve (AUC), mean ± SD [1] | AUC (HCC1806 cells) | GRmax (HCC1806 cells) | AUC (BT-549 cells) | GRmax (BT-549 cells) | AUC (MDA-MB-468 cells) | AUC (MDA-MB-436 cells) | GRmax (MDA-MB-436 cells) | AUC (MCF-7 cells) | GRmax (MCF-7 cells) | AUC (HCC70 cells) | GRmax (HCC70 cells) | AUC (MCF-10A cells) | IC50 [1] | IC50 (MDA-MB-436 cells; [5]) | IC50 (MCF-7 cells; [7]) | IC50 (MCF-10A cells; [6]) | IC50 (MCF-10A cells; [5]) | further results
1 | N.N.[Cl][Pt][Cl] [Cisplatin] | 0.48 | −0.97 | 0.51 ± 0.10 | 0.48 | −0.72 | 0.57 | −0.16 | 0.37 | 0.62 | 0.17 | 0.66 | −0.96 | 0.37 | −0.89 | 0.42 |  |  |  |  |  | IC50 (CAL-148 cells; [2]): 48 nM; IC50 (CAL-148 cells; [3]): 32 nM; IC50 (HCC1806 cells; [2]): 48 nM; IC50 (HCC1806 cells; [3]): 42 nM; IC50 (BT-549 cells; [2]): 53 nM; IC50 (BT-549 cells; [3]): 35 nM; IC50 (MDA-MB-468 cells; [2]): 15 nM; GRmax (MDA-MB-468 cells; [4]): −0.46; IC50 (MDA-MB-468 cells; [3]): 7.5 nM; IC50 (MDA-MB-436 cells; [2]): 64 nM; IC50 (MDA-MB-436 cells; [3]): 43 nM; IC50 (MCF-7 cells; [2]): 160 nM; IC50 (MCF-7 cells; [3]): 15 nM; IC50 (HCC70 cells; [2]): 22 nM; IC50 (HCC70 cells; [3]): 15 nM; IC50 (MCF-10A cells; [2]): 27 nM; GRmax (MCF-10A cells; [4]): −0.32; IC50 (MCF-10A cells; [3]): 28 nM
2 | CC(C)C[C@H](NC(=O)[C@@H](NC(=O)c1cccc(-c2ccccc2)n1)[C@@H](C)O)B(O)O [Delanzomib] | 0.77 | 0.39 | 0.69 ± 0.10 | 0.74 | 0.50 | 0.73 | 0.48 | 0.58 | 0.79 | −0.84 | 0.77 | −0.28 | 0.75 | −0.36 | 0.62 | 79 ± 130 nM | 29 nM | 37 nM | 18 nM | 12 nM | IC50 (CAL-148 cells; [5]): 23 nM; IC50 (MDA-MB-468 cells; [6]): 77 nM; IC50 (MDA-MB-468 cells; [5]): 11 nM; IC50 (HCC70 cells; [6]): 3300 nM; IC50 (HCC70 cells; [5]): 370 nM
3 | CC(=O)O[C@@]12CO[C@@H]1C[C@H](O)[C@@]1(C)C(=O)[C@H](O)C3=C(C)[C@@H](OC(=O)[C@H](O)[C@@H](NC(=O)OC(C)(C)C)c4ccccc4)C[C@@](O)([C@@H](OC(=O)c4ccccc4)[C@H]21)C3(C)C [Docetaxel] | 0.89 | 0.74 | 0.79 ± 0.10 | 0.64 | 0.56 | 0.79 | 0.61 | 0.77 | 0.69 | −0.81 | 0.75 | −0.44 | 0.83 | 0.72 | 0.63 | 8.8 ± 3.9 nM | 5 nM | 6.5 nM | 50 nM | 9 nM | 
